Data taken from ChEMBL document CHEMBL3351430, “Inhibition studies of new ureido-substituted sulfonamides incorporating a GABA moiety against human carbonic anhydrase isoforms I-XIV” (Bioorg Med Chem, 2014).

Experiments:
[1] = target: Carbonic anhydrase 3 (Homo sapiens, UniProt P07451)
Description: Inhibition of human recombinant carbonic anhydrase 3 pre-incubated for 15 mins by stopped-flow CO2 hydration assay

[2] = target: Carbonic anhydrase 13 (Homo sapiens, UniProt Q8N1Q1)
Description: Inhibition of human recombinant carbonic anhydrase 13 pre-incubated for 15 mins by stopped-flow CO2 hydration assay

[3] = target: Carbonic anhydrase 6 (Homo sapiens, UniProt P23280); test: Inhibition of human recombinant carbonic anhydrase 6 pre-incubated for 15 mins by stopped-flow CO2 hydration assay
[4] = target: Carbonic anhydrase 9 (Homo sapiens, UniProt Q16790)
Description: Inhibition of human recombinant carbonic anhydrase 9 pre-incubated for 15 mins by stopped-flow CO2 hydration assay

Chain of Carbonic anhydrase 6 (P23280 whole entry): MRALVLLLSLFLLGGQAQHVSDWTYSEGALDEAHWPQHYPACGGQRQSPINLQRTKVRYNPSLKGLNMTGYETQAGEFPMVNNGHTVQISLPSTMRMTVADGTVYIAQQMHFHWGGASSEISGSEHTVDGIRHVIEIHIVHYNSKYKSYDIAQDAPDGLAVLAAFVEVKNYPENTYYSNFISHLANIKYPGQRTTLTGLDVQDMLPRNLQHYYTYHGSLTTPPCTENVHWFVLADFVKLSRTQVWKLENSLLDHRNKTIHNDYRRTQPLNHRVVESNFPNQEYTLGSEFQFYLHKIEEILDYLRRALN
Chain of Carbonic anhydrase 3 (P07451 whole entry): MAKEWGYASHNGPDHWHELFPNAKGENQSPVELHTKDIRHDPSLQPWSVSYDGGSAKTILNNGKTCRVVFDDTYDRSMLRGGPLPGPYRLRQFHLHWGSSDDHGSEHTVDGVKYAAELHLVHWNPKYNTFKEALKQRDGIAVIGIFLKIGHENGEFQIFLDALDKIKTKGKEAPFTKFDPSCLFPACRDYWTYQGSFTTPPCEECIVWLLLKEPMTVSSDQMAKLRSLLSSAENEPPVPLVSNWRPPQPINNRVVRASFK
Chain of Carbonic anhydrase 13 (Q8N1Q1 whole entry): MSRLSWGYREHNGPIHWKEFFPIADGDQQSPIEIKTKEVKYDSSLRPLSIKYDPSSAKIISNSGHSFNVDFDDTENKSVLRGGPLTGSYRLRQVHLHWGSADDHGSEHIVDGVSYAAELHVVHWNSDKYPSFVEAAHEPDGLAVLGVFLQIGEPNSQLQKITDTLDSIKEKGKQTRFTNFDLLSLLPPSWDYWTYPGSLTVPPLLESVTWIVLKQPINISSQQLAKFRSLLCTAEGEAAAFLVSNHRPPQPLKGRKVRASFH

| Compound | Ki [1] [µM] | Ki [2] [µM] | Ki [3] [µM] | Ki [4] [µM] |
| --- | --- | --- | --- | --- |
| NS(=O)(=O)c1ccc(CNC(=O)CCCNC(=O)NCc2ccccc2)cc1 | > 21 | > 0.24 | > 0.12 | – |
| NS(=O)(=O)c1ccc(CNC(=O)CCCNC(=O)Nc2ccccc2)cc1 | > 21 | > 0.24 | > 0.12 | 0.046 |
| NS(=O)(=O)c1ccc(CCNC(=O)CCCNC(=O)Nc2ccc([N+](=O)[O-])cc2)cc1 | > 21 | > 0.24 | > 0.12 | 0.139 |
| NS(=O)(=O)c1ccc(CCNC(=O)CCCNC(=O)NCc2ccccc2)cc1 | > 21 | > 0.24 | > 0.12 | 0.106 |
| NS(=O)(=O)c1ccc(CCNC(=O)CCCNC(=O)Nc2ccccc2)cc1 | > 21 | > 0.24 | > 0.12 | 0.0416 |
| NS(=O)(=O)c1ccc(CNC(=O)CCCNC(=O)NCCc2ccccc2)cc1 | > 21 | > 0.24 | > 0.12 | 0.301 |
